Data published in PMC10104742, “The Determination of Polymyxin B in Critically Ill Patients by the HPLC-MS/MS Method” (International Journal of Analytical Chemistry, 2023).
Positions of bridges follow the written chain, without caps; N, C: chain ends. Non-standard residues stand in square brackets, D forms with d. Residues, ends and D or L forms follow the SMILES beside them. *: point of attachment. X1 = CC[C@H](C)CCCCC(=O)*; Dab = NCC[C@H](N)C(=O)O

How the values were obtained:
[1] = Stability of PB in plasma QC samples (short-term, freeze-thaw, long-term); assay type: in vitro ADME, human; conditions: for Stability of the sample (in words): human plasma sample
Protocol: Blank plasma (190 μL) and 10 μL working solution were mixed to prepare calibration curves of 8000, 6000, 5000, 2400, 1200, 600, 300, and 100 ng/ml for PB1/PB1-I, and 948.5, 711.4, 592.8, 284.6, 142.3, 71.1, 35.6, and 11.9 ng/mL for PB2/PB3. Similar to the QC standards, for PB1/PB1-I, the low QC (QCL), medium QC 1 (QCM1), medium QC 2 (QCM2), and high QC (QCH) were 200, 1000, 4000, and 7000 ng/ml, respectively. For PB2/PB3, QC standards were 23.7, 118.6, 474.3, and 830.0 ng/ml. First, a 100 μL calibration sample or QC sample was removed; 10 μL IS solution, 200 μL ACN with 0.1% FA (v/v), and 0.2% TFA (v/v/v) were added successively. The samples were vortexed for 2 min to make precipate the protein fully, then centrifugated at 18800 g at 4 ℃ for 15 min. About 200 μL of the supernatant was sucked and transferred into 96-well plates for analysis.
(§1) Volume of 200 μL ACN with 0.2% TFA and 0.1% FA was added to a 100 μL plasma sample containing 10 μL IS solution, vortexed for 2 min, and centrifugated at 18800 g at 4°C for 15 min. The supernatant was then transferred to a 96-well plate for analysis.
(§2) QC samples (QCL, QCM1, QCM2, and QCH) were used to investigate the stability of the stock solutions, working solutions, and samples. Each QC was set with three parallels. The stability of plasma samples stored at room temperature (25°C) for 4 h, at 4°C in a refrigerator for 24 h, at −20°C for 37 days, and at −80°C for 97 days was investigated. The freeze-thaw stability of −20°C and −80°C freeze-thaw cycles at three times each was investigated. The stability of the stock and working solutions stored at −80°C for 97 days was investigated. The accuracy of the quality control sample should be within ±15% of the nominal concentration; the precision should be within 15%.

[2] = Stability of extracted supernatant in the autosampler; assay type: physicochemical; conditions: extracted supernatant in automatic sampler, 24 h
Protocol: The LC-MS/MS system consisted of an Agilent 1260 HPLC system equipped with a cooled autosampler (4°C) and an Agilent 6460 electrospray ionization-triple quadrupole mass spectrometer (Agilent Technologies, USA). The chromatographic column was BEH C18 (Waters, 2.1 × 50 mm, 1.7 μm) (Waters Corporation, USA). Ultrapure water was prepared using the Milli-Q Direct 8 (E. Merck, Darmstadt, Germany) water purification system. A Heraeus Multifuge X1R (Thermo Fisher Scientific, USA) high-speed refrigerated centrifuge was used for the centrifugation. SHIMADZU-AUW120D (Shimadzu Corporation, Japan) was used for the weighting.
as §1
QC samples (QCL, QCM1, QCM2, and QCH) were used to investigate the stability of the stock solutions, working solutions, and samples. Each QC was set with three parallels. The stability of plasma samples stored at room temperature (25°C) for 4 h, at 4°C in a refrigerator for 24 h, at −20°C for 37 days, and at −80°C for 97 days was investigated. The freeze-thaw stability of −20°C and −80°C freeze-thaw cycles at three times each was investigated. […]

[3] = Stability of working and stock solutions; assay type: physicochemical
Protocol: Standard and IS stock solutions were prepared in Milli-Q water containing 1% FA (v/v) at 1 mg/mL (with all substances) and subpacked in EP tubes. Working solutions were diluted from the stock solution. The concentrations of PB1 in the PB1-I's working solution were 160, 120, 100, 48, 24, 12, 6, and 2 μg/mL. The quality control (QC) working solutions were 140, 80, 20, and 4 μg/mL. The IS solution, polymyxin E2, was diluted in 1% FA water to 7.5 μg/mL. All solutions were stored at −80°C.
as §2

CC[C@H](C)CCCCC(=O)N[C@@H](CCN)C(=O)N[C@H](C(=O)N[C@@H](CCN)C(=O)N[C@H]1CCNC(=O)[C@H]([C@@H](C)O)NC(=O)[C@H](CCN)NC(=O)[C@H](CCN)NC(=O)[C@H](CC(C)C)NC(=O)[C@@H](Cc2ccccc2)NC(=O)[C@H](CCN)NC1=O)[C@@H](C)O [PB, Polymyxin B] (X1-[Dab]T[Dab][Dab][Dab][dF]L[Dab][Dab]T; lactam 4-C)
stable: Stability of the sample (in words) ([1]; 4°C, 24 h) | Stability of the sample (in words) ([1]; room temperature, 4 h) | Stability of the sample (in words) ([1]; −20°C, three freeze-thaw cycles) | Stability of the sample (in words) ([1]; −80°C, three freeze-thaw cycles) | Stability of the samples (in words) ([1]; human plasma samples stored at −20°C for 37 days) | Stability of the samples (in words) ([1]; human plasma samples stored at −80°C for 97 days) | Stability of the extracted supernatant (in words) [2] | Stability of the stock solution (in words) ([3]; stock solution at −80°C for 97 days) | Stability of the working solution (in words) ([3]; working solution at −80°C for 97 days) | Stability of the working solution (in words) ([3]; working solution stored at −20°C for 18 days)
